Assay [1] has as its target VEGFR2 (cytoplasmic domain KDR protein) (Homo sapiens (Human), UniProt P35968). The assay can be described thus: VEGFR2 Kinase Assay (biochemical KDR kinase assay). As to conditions: 2.7 μM ATP, poly-Glu-Tyr substrate; read-out: Enzyme VEGFR2 IC50. Here is the method: Biochemical KDR kinase assays were performed in 96 well microtiter plates that were coated overnight with 75 μg/well of poly-Glu-Tyr (4:1) in 10 mM Phosphate Buffered Saline (PBS), pH 7.4. The coated plates were washed with 2 mls per well PBS+0.05% Tween-20 (PBS-T), blocked by incubation with PBS containing 1% BSA, then washed with 2 mls per well PBS-T prior to starting the reaction. Reactions were carried out in 100 μL reaction volumes containing 2.7 μM ATP in kinase buffer (50 mM Hepes buffer pH 7.4, 20 mM MgCl2, 0.1 mM MnCl2 and 0.2 mM Na3VO4). […] Reactions were initiated by the addition 20 μl per well of kinase buffer containing 200-300 ng purified cytoplasmic domain KDR protein (BPS Bioscience, San Diego, Calif.). Following a 15 minute incubation at 30° C., the reactions were washed 2 mls per well PBS-T. 100 μl of a monoclonal anti-phosphotyrosine antibody-peroxidase conjugate diluted 1:10,000 in PBS-T was added to the wells for 30 minutes. Following a 2 mls per well wash with PBS-Tween-20, 100 μl of O-Phenylenediamine Dihydrochloride in phosphate-citrate buffer, containing urea hydrogen peroxide, was added to the wells for 7-10 minutes as a colorimetric substrate for the peroxidase. The reaction was terminated by the addition of 100 μl of 2.5N H2SO4 to each well and read using a microplate ELISA reader set at 492 nm. IC50 values for compound inhibition were calculated directly from graphs of optical density (arbitrary units) versus compound concentration following subtraction of blank values.

Assay [2] deals with PDGFRβ (cytoplasmic domain PDGFR-b protein) (Homo sapiens (Human), UniProt P09619). As to the kind of experiment: PDGFRβ Kinase Assay. It is filed as biochemical. Particulars: 36 μM ATP, poly-Glu-Tyr substrate; read-out: Enzyme PDGFRβ IC50. Here is the method:
Biochemical PDGFRβ kinase assays were performed in 96 well microtiter plates that were coated overnight with 75 μg of poly-Glu-Tyr (4:1) in 10 mM Phosphate Buffered Saline (PBS), pH 7.4. The coated plates were washed with 2 mls per well PBS+0.05% Tween-20 (PBS-T), blocked by incubation with PBS containing 1% BSA, then washed with 2 mls per well PBS-T prior to starting the reaction. […] Reactions were initiated by the addition 20 μl per well of kinase buffer containing 200-300 ng purified cytoplasmic domain PDGFR-b protein (Millipore). Following a 60 minute incubation at 30° C., the reactions were washed 2 mls per well PBS-T. 100 μl of a monoclonal anti-phosphotyrosine antibody-peroxidase conjugate diluted 1:10,000 in PBS-T was added to the wells for 30 minutes. Following a 2 mls per well wash with PBS-Tween-20, 100 μl of O-Phenylenediamine Dihydrochloride in phosphate-citrate buffer, containing urea hydrogen peroxide, was added to the wells for 7-10 minutes as a colorimetric substrate for the peroxidase. […] IC50 values for compound inhibition were calculated directly from graphs of optical density (arbitrary units) versus compound concentration following subtraction of blank values.

A further assay addresses VEGFR2 (Homo sapiens (Human), UniProt P35968). As to the kind of experiment: VEGFR2 Cellular Assay (FLIPR, VEGF induced intracellular calcium in HUVEC). It is filed as cell-based. Particulars: VEGF165 stimulation 10 ng/mL, read-out: Receptor VEGFR2 IC50. Here is the method:
(§1) VEGFR2 Cellular Assay Automated FLIPR (Fluorometric Imaging Plate Reader) technology was used to screen for inhibitors of VEGF induced increases in intracellular calcium levels in fluorescent dye loaded endothelial cells. HUVEC (human umbilical vein endothelial cells) (Clonetics) were seeded in 384-well fibronectin coated black-walled plates overnight at 37° C./5% CO2. Cells were loaded with calcium indicator Fluo-4 for 45 minutes at 37° C. Cells were washed 2 times (Elx405, Biotek Instruments) to remove extracellular dye. For screening, cells were pre-incubated with test agents for 30 minutes, at a single concentration (10 μM) or at concentrations ranging from 0.0001 to 10.0 μM followed by VEGF165 stimulation (10 ng/mL). […] Data were generated by determining max-min fluorescence levels for unstimulated, stimulated, and drug treated samples. IC50 values for test compounds were calculated from % inhibition of VEGF stimulated responses in the absence of inhibitor.
(A change in cytosolic calcium serves as a functional read-out for many receptors and channels.)

Another assay deals with PDGFRβ (Homo sapiens (Human), UniProt P09619). The assay can be described thus: PDGFRβ Cellular Assay (FLIPR, PDGF-induced intracellular calcium in NHDF-Ad). Type of assay: cell-based. Particulars: PDGF-BB stimulation 30 ng/mL, read-out: Receptor PDGFRβ IC50. Here is the method: as §1, with “Automated” for “VEGFR2 Cellular Assay Automated”, “of PDGF-induced” for “of VEGF induced”, “cells. NHDF-Ad (Normal Human Dermal Fibroblasts, Adult; Lonza)” for “cells. HUVEC (human umbilical vein endothelial cells) (Clonetics)”, “by PDGF-BB” for “by VEGF165”, “stimulation (30” for “stimulation (10”, “of PDGF-BB” for “of VEGF”
Chain of PDGFRβ (P09619 33-1106): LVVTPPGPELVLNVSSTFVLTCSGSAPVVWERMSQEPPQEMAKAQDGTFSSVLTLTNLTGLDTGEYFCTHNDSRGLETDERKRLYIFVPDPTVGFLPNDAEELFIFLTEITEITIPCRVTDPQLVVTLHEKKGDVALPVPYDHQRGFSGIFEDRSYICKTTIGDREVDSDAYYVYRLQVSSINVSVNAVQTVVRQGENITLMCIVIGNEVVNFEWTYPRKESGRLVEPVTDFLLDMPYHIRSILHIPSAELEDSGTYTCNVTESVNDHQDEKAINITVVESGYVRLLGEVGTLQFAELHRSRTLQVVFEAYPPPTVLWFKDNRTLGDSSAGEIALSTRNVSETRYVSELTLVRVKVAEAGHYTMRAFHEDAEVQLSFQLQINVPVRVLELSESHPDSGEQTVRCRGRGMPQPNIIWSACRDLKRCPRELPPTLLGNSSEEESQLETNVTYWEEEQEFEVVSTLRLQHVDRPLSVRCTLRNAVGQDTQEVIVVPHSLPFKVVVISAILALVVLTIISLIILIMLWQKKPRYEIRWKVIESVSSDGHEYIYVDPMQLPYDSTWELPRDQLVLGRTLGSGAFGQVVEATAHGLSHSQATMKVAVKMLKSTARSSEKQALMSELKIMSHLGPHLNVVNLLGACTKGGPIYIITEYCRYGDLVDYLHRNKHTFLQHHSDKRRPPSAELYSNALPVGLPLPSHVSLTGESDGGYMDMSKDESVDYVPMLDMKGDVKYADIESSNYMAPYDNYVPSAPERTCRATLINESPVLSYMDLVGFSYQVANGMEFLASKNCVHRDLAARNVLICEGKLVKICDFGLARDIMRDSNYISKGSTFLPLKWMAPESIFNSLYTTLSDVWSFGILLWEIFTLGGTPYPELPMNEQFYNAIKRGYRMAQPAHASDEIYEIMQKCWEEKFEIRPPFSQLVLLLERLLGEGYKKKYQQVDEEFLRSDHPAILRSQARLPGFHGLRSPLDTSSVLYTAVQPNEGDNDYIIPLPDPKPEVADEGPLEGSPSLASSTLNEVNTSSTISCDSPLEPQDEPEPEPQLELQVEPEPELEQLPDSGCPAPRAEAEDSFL

This note sets out measurements from patent publication US9233968B1, “Kinase inhibitors” (Allergan, Inc., priority 2014, dated 2016).

Chain of PDGFRβ (cytoplasmic domain PDGFR-b protein) (P09619 554-1106): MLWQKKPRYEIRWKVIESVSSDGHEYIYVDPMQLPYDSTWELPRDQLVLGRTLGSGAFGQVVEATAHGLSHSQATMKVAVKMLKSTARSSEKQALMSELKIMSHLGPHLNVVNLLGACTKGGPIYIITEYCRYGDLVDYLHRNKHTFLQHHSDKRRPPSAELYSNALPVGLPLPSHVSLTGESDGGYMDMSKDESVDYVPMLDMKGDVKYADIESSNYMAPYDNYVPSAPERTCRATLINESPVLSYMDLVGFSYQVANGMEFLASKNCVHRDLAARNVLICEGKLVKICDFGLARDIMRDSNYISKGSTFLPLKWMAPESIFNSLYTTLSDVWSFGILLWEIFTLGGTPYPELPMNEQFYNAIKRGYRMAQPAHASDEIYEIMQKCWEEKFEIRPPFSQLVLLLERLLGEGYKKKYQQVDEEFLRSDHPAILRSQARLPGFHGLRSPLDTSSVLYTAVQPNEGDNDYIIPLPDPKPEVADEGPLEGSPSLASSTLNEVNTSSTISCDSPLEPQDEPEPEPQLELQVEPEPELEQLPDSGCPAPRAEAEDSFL
Chain of VEGFR2 (P35968 20-1356): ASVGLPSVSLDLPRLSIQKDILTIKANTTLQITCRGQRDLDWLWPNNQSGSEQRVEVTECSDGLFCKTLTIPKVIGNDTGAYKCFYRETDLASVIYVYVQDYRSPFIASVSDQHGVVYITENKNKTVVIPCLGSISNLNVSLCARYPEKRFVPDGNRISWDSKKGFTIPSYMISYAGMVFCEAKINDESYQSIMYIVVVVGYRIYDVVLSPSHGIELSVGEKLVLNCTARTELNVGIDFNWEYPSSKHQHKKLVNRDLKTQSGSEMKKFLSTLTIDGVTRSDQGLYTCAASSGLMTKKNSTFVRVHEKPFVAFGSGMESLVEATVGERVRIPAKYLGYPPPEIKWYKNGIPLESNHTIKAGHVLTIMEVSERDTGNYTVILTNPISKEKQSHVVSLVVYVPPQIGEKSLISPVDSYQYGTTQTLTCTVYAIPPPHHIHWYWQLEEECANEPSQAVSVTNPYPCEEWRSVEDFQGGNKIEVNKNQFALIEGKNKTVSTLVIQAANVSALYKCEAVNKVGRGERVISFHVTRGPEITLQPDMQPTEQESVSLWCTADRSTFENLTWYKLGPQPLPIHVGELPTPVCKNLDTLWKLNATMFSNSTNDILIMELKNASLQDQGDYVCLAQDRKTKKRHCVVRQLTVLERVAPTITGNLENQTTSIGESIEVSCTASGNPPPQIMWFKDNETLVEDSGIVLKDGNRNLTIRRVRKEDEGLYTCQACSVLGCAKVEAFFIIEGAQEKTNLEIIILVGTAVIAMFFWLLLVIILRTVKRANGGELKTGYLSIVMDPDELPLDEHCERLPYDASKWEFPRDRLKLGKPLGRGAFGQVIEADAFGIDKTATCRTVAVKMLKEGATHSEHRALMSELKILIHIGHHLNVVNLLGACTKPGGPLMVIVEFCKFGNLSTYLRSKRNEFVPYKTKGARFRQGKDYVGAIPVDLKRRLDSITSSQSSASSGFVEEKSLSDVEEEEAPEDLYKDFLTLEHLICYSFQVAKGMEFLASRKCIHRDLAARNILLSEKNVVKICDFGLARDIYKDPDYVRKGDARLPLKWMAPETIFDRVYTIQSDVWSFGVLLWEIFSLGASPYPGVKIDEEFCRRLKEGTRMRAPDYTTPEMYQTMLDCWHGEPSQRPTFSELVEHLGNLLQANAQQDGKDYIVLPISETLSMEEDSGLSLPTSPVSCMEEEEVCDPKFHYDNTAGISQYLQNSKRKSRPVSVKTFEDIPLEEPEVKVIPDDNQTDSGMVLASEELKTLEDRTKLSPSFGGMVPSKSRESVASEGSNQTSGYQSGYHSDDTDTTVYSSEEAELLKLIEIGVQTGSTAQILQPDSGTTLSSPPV
Chain of VEGFR2 (cytoplasmic domain KDR protein) (P35968 786-1356): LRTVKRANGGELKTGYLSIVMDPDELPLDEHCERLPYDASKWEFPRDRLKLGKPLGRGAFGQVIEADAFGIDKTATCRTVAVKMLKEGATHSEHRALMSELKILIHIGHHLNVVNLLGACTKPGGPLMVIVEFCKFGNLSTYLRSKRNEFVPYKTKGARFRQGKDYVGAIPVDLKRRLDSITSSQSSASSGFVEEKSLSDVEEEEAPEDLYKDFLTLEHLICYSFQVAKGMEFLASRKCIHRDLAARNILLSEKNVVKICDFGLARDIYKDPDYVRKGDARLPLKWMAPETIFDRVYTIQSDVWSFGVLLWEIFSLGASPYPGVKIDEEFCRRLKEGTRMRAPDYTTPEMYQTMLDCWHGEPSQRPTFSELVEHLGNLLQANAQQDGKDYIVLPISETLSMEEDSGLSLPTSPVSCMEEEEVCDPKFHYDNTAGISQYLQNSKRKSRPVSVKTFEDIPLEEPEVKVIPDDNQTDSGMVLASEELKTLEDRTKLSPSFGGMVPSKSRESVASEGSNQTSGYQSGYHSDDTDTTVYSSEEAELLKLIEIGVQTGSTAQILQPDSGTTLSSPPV

What is called IC50 is the concentration at which inhibition is half-maximal. For the compound `O=C(Nc1cccc(C#Cc2ccc3nccn3n2)c1)c1ccccc1` [Example 27, N-[3-(imidazo[1,2-b]pyridazin-6-ylethynyl)phenyl]benzamide], the IC50 was 2360 nM in assay [1], 27 nM in assay [2], greater than 10000 nM at VEGFR2 and 17800 nM at PDGFRβ.

Turning to `O=C(Nc1ccccc1)Nc1ccc(C#Cc2ccc3nccn3n2)cc1` [Example 8, 1-[4-(imidazo[1,2-b]pyridazin-6-ylethynyl)phenyl]-3-phenylurea], the IC50 in assay [1] turned out to be 267 nM; in assay [2], 185 nM; at VEGFR2 it was 5430 nM.

Consider `Cc1cccc(NC(=O)Nc2ccc(C#Cc3ccc4nccn4n3)cc2)c1` [Example 3, 1-[4-(imidazo[1,2-b]pyridazin-6-ylethynyl)phenyl]-3-(3-methylphenyl)urea], for which the IC50 stood at 23 nM in assay [1], 80 nM in assay [2], 132 nM on VEGFR2 and 70 nM at PDGFRβ.

With `O=C(Nc1ccc(C#Cc2ccc3nc(NC(=O)Nc4ccc(F)c(Cl)c4)cn3n2)cc1)Nc1ccc(F)c(Cl)c1` [Example 15, 1-(3-chloro-4-fluorophenyl)-3-(4-{[2-({[(3-chloro-4-fluorophenyl)amino]carbonyl}amino)imidazo[1,2-b]pyridazin-6-yl]ethynyl}phenyl)urea], the IC50 in assay [1] is 2930 nM; in assay [2] it was 3610 nM; at VEGFR2, greater than 10000 nM; on PDGFRβ, 3630 nM.

With `O=C(Nc1cccc(C#Cc2ccc3nccn3n2)c1)c1cc2ccccc2o1` [Example 25, N-[3-(imidazo[1,2-b]pyridazin-6-ylethynyl)phenyl]-1-benzofuran-2-carboxamide], the IC50 in assay [1] is 1610 nM; in assay [2] it was 2720 nM; on VEGFR2, greater than 10000 nM; at PDGFRβ, greater than 10000 nM.

For the compound `O=C(Nc1cccc(C#Cc2ccc3nccn3n2)c1)c1cccc(C(F)(F)F)c1` [Example 22, N-[3-(imidazo[1,2-b]pyridazin-6-ylethynyl)phenyl]-3-(trifluoromethyl)benzamide], the IC50 in assay [1] was 279 nM; in assay [2], 628 nM; on VEGFR2, 1280 nM; on PDGFRβ it was 1630 nM.

For `O=C(Nc1ccc(C#Cc2ccc3nccn3n2)cc1)Nc1ccc(F)c(Cl)c1` [Example 5, 1-(3-chloro-4-fluorophenyl)-3-[4-(imidazo[1,2-b]pyridazin-6-ylethynyl)phenyl]urea], in assay [1], the IC50 was 96 nM.

For `Cc1ccc(F)c(C(=O)Nc2cccc(C#Cc3ccc4nccn4n3)c2)c1` [Example 26, 2-fluoro-N-[3-(imidazo[1,2-b]pyridazin-6-ylethynyl)phenyl]-5-methylbenzamide], the IC50 in assay [1] was 1620 nM; in assay [2] it was 6080 nM; on VEGFR2, 3040 nM; on PDGFRβ, greater than 10000 nM.

As for `O=C(Nc1ccc(C#Cc2ccc3nccn3n2)cc1)Nc1ccc(Cl)c(C(F)(F)F)c1` [Example 7, 1-[4-chloro-3-(trifluoromethyl)phenyl]-3-[4-(imidazo[1,2-b]pyridazin-6-ylethynyl)phenyl]urea], the results for the IC50 (in assay [1]; in assay [2]; at VEGFR2) were 127 nM, 43 nM and 2050 nM, respectively.

Take `Cc1ccc(NC(=O)Nc2ccc(C#Cc3ccc4nccn4n3)cc2)cc1` [Example 13, 1-[4-(imidazo[1,2-b]pyridazin-6-ylethynyl)phenyl]-3-(4-methylphenyl)urea]: in assay [2], the IC50 stood at 67 nM.

For `Cc1cccc(C(=O)Nc2cccc(C#Cc3ccc4nccn4n3)c2)c1` [Example 23, N-[3-(imidazo[1,2-b]pyridazin-6-ylethynyl)phenyl]-3-methylbenzamide], the IC50 in assay [1] worked out at 295 nM; in assay [2] it was 1530 nM; at VEGFR2, 862 nM.

Regarding `CC(=O)Nc1cn2nc(C#Cc3ccc(NC(=O)Nc4cccc(C)c4)cc3)ccc2n1` [Example 11, N-(6-{[4-({[(3-methylphenyl)amino]carbonyl}amino)phenyl]ethynyl}imidazo[1,2-b]pyridazin-2-yl)acetamide], the IC50 in assay [1] was 3180 nM; on VEGFR2 it was greater than 10000 nM; on PDGFRβ it was greater than 10000 nM.

As to `Cc1ccc(F)c(NC(=O)Nc2ccc(C#Cc3ccc4nccn4n3)cc2)c1` [Example 6, 1-(2-fluoro-5-methylphenyl)-3-[4-(imidazo[1,2-b]pyridazin-6-ylethynyl)phenyl]urea], the IC50 in assay [1] was 101 nM.

As to `Cc1cccc(NC(=O)Nc2ccc(C#Cc3ccc4nc(NC(=O)C5CC5)cn4n3)cc2)c1` [Example 12, N-(6-{[4-({[(3-methylphenyl)amino]carbonyl}amino)phenyl]ethynyl}imidazo[1,2-b]pyridazin-2-yl)cyclopropanecarboxamide], the IC50 in assay [1] was 1310 nM; on VEGFR2, greater than 10000 nM; at PDGFRβ it was greater than 10000 nM.

As for `O=C(Nc1ccc(C#Cc2ccc3nccn3n2)cc1)Nc1cc(C(F)(F)F)ccc1F` [Example 9, 1-[2-fluoro-5-(trifluoromethyl)phenyl]-3-[4-(imidazo[1,2-b]pyridazin-6-ylethynyl)phenyl]urea], the IC50 was 448 nM in assay [1], 93 nM in assay [2] and 8420 nM on VEGFR2.

`Cc1ccc(F)c(NC(=O)Nc2cccc(C#Cc3ccc4nccn4n3)c2)c1` [Example 29, 1-(2-fluoro-5-methylphenyl)-3-[3-(imidazo[1,2-b]pyridazin-6-ylethynyl)phenyl]urea]: the IC50 in assay [1] is 4700 nM; in assay [2], greater than 10000 nM.

As for `Nc1n[nH]c2cccc(C#Cc3cccc(NC(=O)Nc4ccccc4)c3)c12` [Example 32, 1-{3-[(3-amino-1H-indazol-4-yl)ethynyl]phenyl}-3-phenylurea], the IC50 in assay [1] worked out at 41 nM; on VEGFR2, 20 nM.

In the case of `Cc1ccc(F)c(NC(=O)Nc2ccc(C#Cc3cccc4[nH]nc(N)c34)cc2)c1` [Example 33, 1-{4-[(3-amino-1H-indazol-4-yl)ethynyl]phenyl}-3-(2-fluoro-5-methylphenyl)urea], the results for the IC50 (in assay [1]; at VEGFR2) were 90 nM and 162 nM, respectively.

Turning to `Cc1ccc(F)c(NC(=O)Nc2cccc(C#Cc3cccc4[nH]nc(N)c34)c2)c1` [Example 31, 1-{3-[(3-amino-1H-indazol-4-yl)ethynyl]phenyl}-3-(2-fluoro-5-methylphenyl)urea], the IC50 is 21 nM in assay [1] and 16 nM at VEGFR2.

In the case of `Cc1ccc(F)c(NC(=O)Nc2ccccc2C#Cc2ccc3nccn3n2)c1` [Example 30, 1-(2-fluoro-5-methylphenyl)-3-[2-(imidazo[1,2-b]pyridazin-6-ylethynyl)phenyl]urea], the values for the IC50 in assay [1] and in assay [2] were 1800 nM and greater than 10000 nM, respectively.
